Article PMC7125190, “Native/citrullinated LL37-specific T-cells help autoantibody production in Systemic Lupus Erythematosus” (Scientific Reports, 2020)

Legend:
CD3+CD4+ T-cells = test: T-cell proliferation assay (BrdU incorporation of PBMC); format: cell-based, human; conditions: for CLE patients whose CD3+CD4+ cells proliferated: CLE PBMC; for CLE patients whose CD3+CD4+ cells proliferated / SLE patients whose CD3+CD4+ cells proliferated: day 6, BrdU; for CLE patients whose CD3+CD4+ cells proliferated / PSO patients whose T-cells responded / RA patients whose T-cells proliferated / SLE patients whose CD3+CD4+ cells proliferated: positive if SI ≥3; for T-cell proliferation in HD/SSc: HD (LL37, cit-LL37) and SSc (LL37) PBMC; for PSO patients whose T-cells responded: PSO PBMC, ten of twenty-nine (LL37), 3 of 21 (cit-LL37); for PSO patients whose T-cells responded / RA patients whose T-cells proliferated: BrdU; for RA patients whose T-cells proliferated: RA PBMC, two of 15; for SLE patients whose CD3+CD4+ cells proliferated: SLE PBMC, 18 of 40 (LL37), 11 of 25 (cit-LL37); for Change of T-cell response on follow-up: eight SLE patients, up to 36 months of successful standard therapy, statistically significant for native LL37; for Proliferative response in LL37-non-responders: three SLE LL37-non-responders
Description: PBMCs were purified, from EDTA-treated blood, on Ficoll-Hypaque (Pharmacia Fine Chemicals, Uppsala, Sweden) were incubated (10^5 cells/well) in 96-well-flat-bottom-microplates (BD) in T cell- […]
penicillin, and 100 μg/mL streptomycin), with/without peptides. We performed assays on fresh cells, within 1-to-3 hours from collection, or on PBMCs frozen in 90% FCS-10%DMSO, whose viability we assessed by Trypan blue exclusion, at inverted microscope.
At day3 and 5, BrdU was added (1 μg/mL). BrdU-incorporation was detected by APC-labeled anti-BrdU antibody (BD Pharmingen), after surface staining by flow cytometry. Internal control for T-cell viability and proliferation was PHA treatment (2 μg/mL). SI for proliferation was calculated by dividing percent of BrdU-staining in the presence of each peptide used to stimulate cells by percent of BrdU-staining in the absence of peptide stimulation. SI for proliferation was considered positive when>3. This cut-off was obtained by calculating the mean+2DS [1.5 + 2 (0.6)] (of the stimulation indexes calculated as above) of the proliferation of HD.
Basal % of proliferation was set using, as reference, an isotype matched antibody staining (APC- […]
Assays were repeated twice with each patient. In rare cases in which background proliferation exceed antigen-specific proliferation the assay was repeated three times. Concomitant phenotype analysis of LL37-responder T-cells included staining for CD4, CD8, CXCR5, PD1, ICOS, CCR6. […]

PBMCs = test: IL-21 production in PBMC cultures (ELISA); format: cell-based, human; conditions: SLE (but not in psoriasis)
Text: analyzed by flow-cytometry (after staining by BrdU-detection kit, BD Pharmingen). Before cloning, bulk-cultures were stimulated with autologous-irradiated PBMCs and peptide over night, and stained for CD3 and CD4 and with the “Cytokine secretion assays kits” (MACS, Miltenyi Biotec) to detect IL-2-, IFN-ɣ- and/or IL-17-secretion and CD38 as an activation marker, and sorted by a cell-sorter (MoFlo Astrios, Beckman Coulter). Dead cells were excluded by DAPI staining. Sorted activated CD4+CD3+ cells, secreting cytokines were cloned by limiting dilution in Terasaki plates (Nunc Microwell, Sigma-Aldrich) in the presence of allogeneic-irradiated (104) PBMCs activated by phytohaemagglutinin (1 µg/mL, PHA, Murex, 0.5 cells/well) and 100 U/mL of hrIL-2. Clones reactivity and HLA-restriction were analyzed using HLA-matched-homozigous B-LCLs, pulsed with […]
Measurement of cytokine production in primary T-cells and T-cell lines/clones Cytokines secretion was detected by ELISA (Quantikine; R&D Systems, Minneapolis, MN) for IL-4, IL-10, IL-17, IFN-ɣ, IL-22, IL-21, or by Th1/Th2 10-Plex and IL-17-Tissue Culture Kits (read by MSD Sector Imager 2400, Meso Scale Discovery, Gaithersburg, MD). Supernatants were harvested from primary cultures at day 3 (day 2 for T-cell lines/clones). Production of cytokines was also analyzed by flow cytometry after culture of PBMCs with LL37/LL37-peptides for 6-7 days. […]

Substance	CLE patients whose CD3+CD4+ cells proliferated (CD3+CD4+ T-cells)	T-cell proliferation in HD/SSc (CD3+CD4+ T-cells)	PSO patients whose T-cells responded (CD3+CD4+ T-cells)	RA patients whose T-cells proliferated (CD3+CD4+ T-cells)	SLE patients whose CD3+CD4+ cells proliferated (CD3+CD4+ T-cells)	Change of T-cell response on follow-up (CD3+CD4+ T-cells)	Proliferative response in LL37-non-responders (CD3+CD4+ T-cells)	IL-21 production (PBMCs)	Proliferative response at remission (CD3+CD4+ T-cells; SLE at remission (T1), only at the highest dose)	Proliferative response at lower antigen dose, cit-LL37 versus native (CD3+CD4+ T-cells; SLE, low dose 1 μg/mL, 12 LL37/cit-LL37 responders)
LLGDFFRKSKEKIGKEFKRIVQRIKDFLRNLVPRTES [LL37, native LL37, antimicrobial peptide, 37 aa]	three of five	No SSc or HD showed a significant response	34%	13%	45%	decreased	no proliferation	significant up-regulation		
LLGDFFR(cit)KSKEKIGKEFKR(cit)IVQR(cit)IKDFLR(cit)NLVPR(cit)TES [cit-LL37, citrullinated LL37 (citrullinated at all five arginin positions)]	3 of 5	no responses in HD	14%	13%	44%	decreased	no proliferation	significant up-regulation	still significant only in response to cit-LL37	T-cells responded better to cit-LL37 than the native counterpart at lower antigen doses
